According to PubChem BioAssay (NCI):
“And” between values parts separate entries of the source, which are not always exact repeats. Equal values may be shown once.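 Assay format: 96-well plates, 48-hour exposure. Here, GI50 denotes the concentration required for 50% inhibition of growth. TGI: total growth inhibition.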

Legend:
Assay in all cases: NCI anticancer screen, dose series, 48 h
[1] = system: A549 NSCLC
[2] = system: HCT-116 colon
[3] = system: IGROV1 ovarian
[4] = system: K-562 leukemia
[5] = system: MALME-3M melanoma
[6] = system: RPMI-8226 leukemia
[7] = system: SK-MEL-5 melanoma
[8] = system: SNB-19 CNS
[9] = system: T-47D breast
[10] = system: CAKI-1 renal

In the case of `Clc1ccc2c(NCCNc3nc(N4CCOCC4)nc4ccccc34)ccnc2c1`, the GI50 [1] was 2.96 µM, the TGI [1] was 10.6 µM and the GI50 [2] was 1.66 µM. For the same compound, the TGI [2] was 3.3 µM, the GI50 [3] was 2.88 µM and the TGI [3] was 10.2 µM. It also gave a GI50 [4] of 0.892 µM, a TGI [4] of 13.1 µM and a GI50 [5] of 1.97 µM. For the same compound, the TGI [5] was 3.89 µM, the GI50 [6] was 1.72 µM and the TGI [6] was 5.17 µM. It also gave a GI50 [7] of 1.75 µM, a TGI [7] of 3.15 µM and a GI50 [8] of 2.59 µM. For the same compound, the TGI [8] was 8.78 µM, the GI50 [9] was 2.82 µM and the TGI [9] was 8.98 µM.
For `C[N+](C)(C)CC1CCC(C[N+](C)(C)C)C1=NO` (stereo not drawn), the TGI [1] was over 100 µM, the TGI [2] was over 100 µM and the TGI [3] was over 100 µM. The TGI [4] was over 100 µM, the TGI [5] was over 100 µM and the TGI [6] was over 100 µM. It also gave a TGI [7] of over 100 µM and a TGI [8] of over 100 µM.
`COc1cc2c(c(OC)c1OC)-c1cc(I)c(O)cc1[C@@H](NC(C)=O)CC2` gave a GI50 [1] of 0.0695 µM, a TGI [1] of over 40.1 µM and a GI50 [10] of 3.58 µM. For the same compound, the TGI [10] was over 100 µM, the GI50 [2] was 0.0409 µM and the TGI [2] was 19.4 µM. It also gave a GI50 [3] of 0.137 µM, a TGI [3] of over 31.6 µM and a GI50 [4] of 0.0324 µM. It also gave a TGI [4] of over 100 µM, a GI50 [5] of over 100 µM and a TGI [5] of over 100 µM. The GI50 [6] was 0.035 µM, the TGI [6] was 2.53 µM and the GI50 [7] was 0.0358 µM. For the same compound, the TGI [7] was 0.244 µM, the GI50 [8] was 0.0679 µM and the TGI [8] was over 100 µM.
In the case of `COC(=O)Cc1cc(=O)n2c3ccccc3n(C)c2c1C#N`, the TGI [1] was over 100 µM, the TGI [10] was over 100 µM and the TGI [2] was over 100 µM. For the same compound, the TGI [3] was over 100 µM, the TGI [4] was over 100 µM and the TGI [5] was over 100 µM. It also gave a TGI [6] of over 100 µM, a TGI [7] of over 100 µM and a TGI [8] of over 100 µM.
With `COC(=O)[C@@]12OC[C@]34[C@H]([C@@H](O)[C@@H]1O)[C@@]1(C)CC(=O)C(O)=C(C)[C@@H]1C[C@H]3OC(=O)[C@H](OC(=O)/C=C(\C)C(C)C)[C@@H]24` the TGI [1] was 0.0168 µM and < 0.0163 µM and 0.0473 µM, the TGI [10] was 0.055 µM and 0.0295 µM and 0.159 µM and the TGI [2] was 0.0144 µM and 0.0478 µM. The TGI [3] was 0.0153 µM and 0.059 µM, the TGI [5] was 0.00498 µM and 0.0263 µM and the TGI [6] was 0.0129 µM and < 0.0409 µM and 0.0545 µM. For the same compound, the TGI [7] was 0.00333 µM and 0.0278 µM, the GI50 [8] was 0.00464 µM and the TGI [8] was 0.0214 µM and 0.145 µM. It also gave a TGI [9] of 0.0581 µM.
`CC(C)c1ccc(O)c(Cc2cc(C(C)C)cc(Cc3cc(C(C)C)ccc3O)c2O)c1` showed a TGI [1] of 3.96 µM, a TGI [10] of 2.91 µM and a TGI [2] of 3.19 µM. The TGI [3] was 6.54 µM, the TGI [4] was 4.78 µM and the TGI [5] was 2.82 µM. For the same compound, the TGI [6] was 4.75 µM, the TGI [7] was 3.15 µM and the TGI [8] was 3.12 µM.
Work on `FC(F)(F)c1ccccc1C1SCc2nc3ccccc3n21` (stereo not drawn) yielded a TGI [1] of over 100 µM, a TGI [10] of over 100 µM and a TGI [2] of over 100 µM. For the same compound, the TGI [3] was over 100 µM, the TGI [4] was over 100 µM and the TGI [5] was over 100 µM. The TGI [6] was over 100 µM and the TGI [8] was over 100 µM.
With `[Br][Pb]([c]1ccccc1)([c]1ccccc1)[c]1ccccc1` the GI50 [1] was 0.356 µM, the TGI [1] was 1.29 µM and the GI50 [10] was 0.2 µM. For the same compound, the TGI [10] was 0.454 µM, the GI50 [2] was 0.176 µM and the TGI [2] was 0.352 µM. The GI50 [4] was 0.139 µM, the GI50 [5] was 0.183 µM and the TGI [5] was 0.39 µM. The GI50 [6] was 0.179 µM, the TGI [6] was 0.681 µM and the GI50 [7] was 0.164 µM. The TGI [7] was 0.312 µM, the GI50 [8] was 0.221 µM and the TGI [8] was 0.527 µM. For the same compound, the GI50 [9] was 0.143 µM and the TGI [9] was 0.318 µM.
In the case of `CN1C2C=CC(=O)C1C1C(=O)N(c3ccccc3)C(=O)C12` (stereo not drawn), the GI50 [1] was 11.1 µM, the TGI [1] was 29.1 µM and the GI50 [10] was 1.66 µM. It also gave a TGI [10] of 4.27 µM, a GI50 [2] of 3.57 µM and a TGI [2] of 16.2 µM. For the same compound, the GI50 [3] was 12.1 µM, the TGI [3] was 27.9 µM and the GI50 [4] was 10.2 µM. For the same compound, the TGI [4] was over 100 µM, the GI50 [7] was 11.8 µM and the TGI [7] was 24.3 µM. It also gave a GI50 [8] of 13.3 µM, a TGI [8] of 29.5 µM and a GI50 [9] of 5.65 µM. The TGI [9] was 22.6 µM.
Work on `CC(=O)CCC1(c2ccccc2)OC(=O)C(C#N)=C1c1ccccc1` (stereo not drawn) yielded a TGI [1] of over 100 µM, a TGI [2] of over 100 µM and a TGI [3] of over 100 µM. For the same compound, the TGI [4] was over 100 µM, the TGI [5] was over 100 µM and the TGI [6] was over 100 µM. The TGI [7] was over 100 µM and the TGI [8] was over 100 µM.
`CC(C)(O)C1COC2=C1C(=O)c1ccccc1C2=O` (stereo not drawn) was tested, and the TGI [1] was over 100 µM, the TGI [10] was over 100 µM and the TGI [2] was 66.9 µM. It also gave a TGI [3] of over 100 µM, a TGI [4] of over 100 µM and a TGI [6] of over 100 µM. It also gave a TGI [7] of 57.4 µM, a TGI [8] of over 100 µM and a TGI [9] of over 100 µM.
Compound `O=c1ccc(N=Nc2ccccc2)ccc1O` has a TGI [1] of 27.8 µM, a TGI [10] of 29.4 µM and a TGI [2] of 26 µM. For the same compound, the TGI [3] was 34.6 µM, the TGI [4] was over 100 µM and the TGI [5] was 27.9 µM. It also gave a TGI [7] of 23.6 µM, a TGI [8] of over 100 µM and a TGI [9] of 42.4 µM.
`Cc1cc(N(CCC#N)CCC#N)ccc1/C=C(\NC(=O)/C=C/c1ccccc1)C(=O)Nc1ccccc1Cl` gave a TGI [1] of over 100 µM, a TGI [10] of over 100 µM and a TGI [2] of over 100 µM. For the same compound, the TGI [3] was over 100 µM, the TGI [4] was over 100 µM and the TGI [5] was over 100 µM. For the same compound, the TGI [6] was over 100 µM, the TGI [7] was over 100 µM and the TGI [8] was over 100 µM.
In the case of `COc1cccc(/C=C2\N=C(c3ccccc3)OC2=O)c1`, the TGI [1] was over 100 µM, the TGI [10] was over 100 µM and the TGI [2] was over 100 µM. It also gave a TGI [3] of over 100 µM, a TGI [4] of over 100 µM and a TGI [6] of 94.1 µM. For the same compound, the TGI [7] was over 100 µM, the TGI [8] was over 100 µM and the TGI [9] was over 100 µM.
`O=C1/C(=C/c2ccc(Cl)cc2)CCC1CNc1ccc(Cl)cc1` (stereo not drawn) showed a TGI [1] of 38.1 µM, a TGI [10] of 28.9 µM and a TGI [2] of 44.6 µM. For the same compound, the TGI [3] was 27.3 µM, the TGI [4] was 21.3 µM and the TGI [5] was 44.8 µM. For the same compound, the TGI [6] was 6.68 µM, the TGI [7] was 22 µM and the TGI [8] was 35.7 µM.
Compound `Fc1ccccc1CN1COc2c(cc(Cl)c3cccnc23)C1` has a TGI [1] of 10.9 µM, a TGI [10] of 9.93 µM and a TGI [2] of 13.2 µM. The TGI [3] was 18.6 µM, the TGI [4] was 8.41 µM and the TGI [5] was 12.2 µM. It also gave a TGI [7] of 3.75 µM, a TGI [8] of 9.23 µM and a TGI [9] of 18.4 µM.
`O=C1C(Cl)=C(Nc2ccc(S(=O)(=O)c3ccc(NC4=C(Cl)C(=O)c5ccccc5C4=O)cc3)cc2)C(=O)c2ccccc21` was tested, and the GI50 [1] was 5.71 µM, the TGI [1] was 38.8 µM and the GI50 [10] was 1.38 µM. For the same compound, the TGI [10] was 2.74 µM, the GI50 [2] was 1.2 µM and the TGI [2] was 2.49 µM. It also gave a GI50 [4] of 1.63 µM, a TGI [4] of 5.24 µM and a GI50 [5] of 2.13 µM. The TGI [5] was 3.88 µM, the GI50 [6] was 1.54 µM and the TGI [6] was 7.25 µM. For the same compound, the GI50 [7] was 1.71 µM, the TGI [7] was 3.49 µM and the GI50 [8] was 3.11 µM. The TGI [8] was 13.9 µM.
With `Cc1c(Cl)ccc2c1NC(=O)C2(O)CC(=O)c1ccc(Cl)cc1` (stereo not drawn) the TGI [1] was over 100 µM, the TGI [10] was over 100 µM and the TGI [2] was over 54 µM. It also gave a TGI [3] of over 100 µM, a TGI [4] of over 64.8 µM and a TGI [5] of over 54.4 µM. For the same compound, the TGI [6] was over 84.3 µM, the TGI [7] was over 100 µM and the TGI [8] was over 100 µM.
In the case of `Cc1cc(Cl)ccc1N=C1NC(=O)C(CC(=O)Nc2cccc(Cl)c2)S1` (stereo not drawn), the TGI [1] was over 100 µM, the TGI [10] was over 100 µM and the TGI [2] was over 100 µM. The TGI [3] was over 100 µM, the TGI [4] was over 100 µM and the TGI [5] was over 100 µM. For the same compound, the TGI [7] was over 100 µM and the TGI [8] was over 100 µM.
